pEC50: −log10 of the molar value.
System: HCV genotype 1b replicon in Huh 7 cells
Test: HCV replicon assay (1b_Huh-Luc/Neo-ET cell line, luciferase readout)
Format: cell-based
Conditions: Hepatitis C virus; Table 1; genotype 1b replicon, Huh 7 cells, 72 h, luciferase; read-out: Inhibition of HCV genotype 1b
Outline: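 Replicon level was read as luciferase signal after 72 h compound exposure, triplicate wells, starting the day after cells were plated. Cell line: 1b_Huh-Luc/Neo-ET. Values normalised to control as percent, and EC50 fitted with a variable-slope sigmoid; determinations repeated.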

Compound | pEC50
COC(=O)N[C@H](C(=O)N1CCC[C@H]1c1ncc(-c2ccc(-c3cc4ccc(-c5cnc([C@@H]6CCCN6C(=O)[C@@H](NC(=O)OC)C(C)C)[nH]5)cc4cn3)c(F)c2)[nH]1)C(C)C [compound 150] | > 9.00
COC(=O)N[C@H](C(=O)N1CCC[C@H]1c1ncc(-c2ccc3cc(-c4ccc(-c5cnc([C@@H]6CCCN6C(=O)[C@@H](NC(=O)OC)C6CCOCC6)[nH]5)cc4F)ncc3c2)[nH]1)C(C)C [compound 151] | > 9.00
COC(=O)N[C@H](C(=O)N1CCC[C@H]1c1ncc(-c2ccc3cc(-c4ccc(-c5cnc([C@@H]6CCCN6C(=O)[C@H](NC(=O)OC)c6ccccc6)[nH]5)cc4F)ncc3c2)[nH]1)C(C)C [compound 152] | > 9.00
COC(=O)N[C@H](C(=O)N1CCC[C@H]1c1ncc(-c2ccc3cc(-c4ccc(-c5cnc([C@@H]6CCCN6C(=O)[C@H](NC(=O)OC6CCOCC6)c6ccccc6)[nH]5)cc4F)ncc3c2)[nH]1)C(C)C [compound 153] | > 9.00
COC(=O)N[C@H](C(=O)N1CCC[C@H]1c1ncc(-c2ccc3cc(-c4ccc(-c5cnc([C@@H]6CCCN6C(=O)[C@H](NC(=O)OC6CCOCC6)c6ccccc6)[nH]5)c(F)c4)ncc3c2)[nH]1)C1CCOCC1 [compound 154] | > 9.00
COC(=O)N[C@H](C(=O)N1CCC[C@H]1c1ncc(-c2ccc3cc(-c4ccc(-c5cnc([C@@H]6CCCN6C(=O)[C@H](NC(=O)OC)c6ccccc6)[nH]5)c(F)c4)ncc3c2)[nH]1)C(C)C [compound 155] | > 9.00
COC(=O)N[C@H](C(=O)N1CCC[C@H]1c1ncc(-c2ccc(-c3cc4ccc(-c5cnc([C@@H]6CCCN6C(=O)[C@H](NC(=O)OC6CCOCC6)c6ccccc6)[nH]5)cc4cn3)cc2F)[nH]1)C(C)C [compound 156] | > 9.00
[2H]C([2H])([2H])C([2H])(C([2H])([2H])[2H])[C@@]([2H])(NC(=O)OC)C(=O)N1CCC[C@H]1c1ncc(-c2ccc3nc(-c4ccc(-c5cnc([C@@H]6CCCN6C(=O)[C@@H](NC(=O)OC)C(C)C)[nH]5)cc4F)ccc3c2)[nH]1 [compound 157] | > 9.00
[2H]C([2H])([2H])C([2H])(C([2H])([2H])[2H])[C@@]([2H])(NC(=O)OC)C(=O)N1CCC[C@H]1c1ncc(-c2ccc3nc(-c4ccc(-c5cnc([C@@H]6CCCN6C(=O)[C@@H](NC(=O)OC)C6CCOCC6)[nH]5)cc4F)ccc3c2)[nH]1 [compound 158] | > 9.00
C=CC[C@H](NC(=O)OC)C(=O)N1CCC[C@H]1c1ncc(-c2ccc3nc(-c4ccc(-c5cnc([C@@H]6CCCN6C(=O)[C@@H](NC(=O)OC)C(C)C)[nH]5)cc4F)ccc3c2)[nH]1 [compound 159] | > 9.00
C=CC[C@H](NC(=O)OC)C(=O)N1CCC[C@H]1c1ncc(-c2ccc3nc(-c4ccc(-c5cnc([C@@H]6CCCN6C(=O)[C@@H](NC(=O)OC)C6CCOCC6)[nH]5)cc4F)ccc3c2)[nH]1 [compound 160] | > 9.00
C#CC[C@H](NC(=O)OC)C(=O)N1CCC[C@H]1c1ncc(-c2ccc3nc(-c4ccc(-c5cnc([C@@H]6CCCN6C(=O)[C@@H](NC(=O)OC)C(C)C)[nH]5)cc4F)ccc3c2)[nH]1 [compound 161] | > 9.00
C#CC[C@H](NC(=O)OC)C(=O)N1CCC[C@H]1c1ncc(-c2ccc3nc(-c4ccc(-c5cnc([C@@H]6CCCN6C(=O)[C@@H](NC(=O)OC)C6CCOCC6)[nH]5)cc4F)ccc3c2)[nH]1 [compound 162] | > 9.00
COC(=O)N[C@H](C(=O)N1CCC[C@H]1c1ncc(-c2ccc(-c3ccc4cc(-c5cnc([C@@H]6CCCN6C(=O)[C@H](NC(=O)OC)C6C=CCC=C6)[nH]5)ccc4n3)c(F)c2)[nH]1)C1CCOCC1 [compound 163] | > 9.00
COC(=O)NC(C(=O)N1CCC[C@H]1c1ncc(-c2ccc3nc(-c4ccc(-c5cnc([C@@H]6CCCN6C(=O)[C@@H](NC(=O)OC)C6CCOCC6)[nH]5)cc4F)ccc3c2)[nH]1)C1CCOC1 (some centres unmarked) [compound 164] | > 9.00
COC(=O)N[C@H](C(=O)N1CCC[C@H]1c1ncc(-c2ccc3cc(-c4ccc(-c5cnc([C@@H]6CCCN6C(=O)[C@H](NC(=O)OC)c6ccccc6)[nH]5)cc4F)ncc3c2)[nH]1)C1CCOCC1 [compound 165] | > 9.00
COC(=O)N[C@H](C(=O)N1CCC[C@H]1c1ncc(-c2ccc(-c3cc4ccc(-c5cnc([C@@H]6CCCN6C(=O)[C@@H](NC(=O)OC)C6CCOCC6)[nH]5)cc4cn3)c(F)c2)[nH]1)C(C)C [compound 166] | > 9.00
COC(=O)N[C@H](C(=O)N1CCC[C@H]1c1ncc(-c2ccc(-c3cc4ccc(-c5cnc([C@@H]6CCCN6C(=O)[C@H](NC(=O)OC)c6ccccc6)[nH]5)cc4cn3)c(F)c2)[nH]1)C(C)C [compound 167] | > 9.00
COC(=O)N[C@H](C(=O)N1CCOC[C@H]1c1ncc(-c2ccc3cc(-c4ccc(-c5cnc([C@@H]6COCCN6C(=O)[C@H](NC(=O)OC)c6ccccc6)[nH]5)cc4)ccc3c2)[nH]1)C(C)C [compound 168] | > 9.00
COC(=O)N[C@H](C(=O)N1CCC[C@H]1c1ncc(-c2ccc3cc(-c4ccc(-c5cnc([C@@H]6COCCN6C(=O)[C@H](NC(=O)OC)c6ccccc6)[nH]5)cc4)ccc3c2)[nH]1)C1CCOCC1 [compound 169] | > 9.00
COC(=O)N[C@H](C(=O)N1CCOC[C@H]1c1ncc(-c2ccc(-c3ccc4cc(-c5cnc([C@@H]6COCCN6C(=O)[C@@H](NC(=O)OC)C(C)C)[nH]5)ccc4c3)cc2)[nH]1)C(C)C [compound 170] | > 9.00

Compound | pEC50
CCC(CC)[C@H](NC(=O)OC)C(=O)N1CCC[C@H]1c1ncc(-c2ccc(-c3ccc4cc(-c5cnc([C@@H]6CCCN6C(=O)[C@@H](NC(=O)OC)C(CC)CC)[nH]5)ccc4c3)cc2)[nH]1 [compound 171] | > 9.00
COC(=O)N[C@H](C(=O)N1CCC[C@H]1c1ncc(-c2ccc(-c3ccc4cc(-c5cnc([C@@H]6CCCN6C(=O)[C@@H](NC(=O)OC)C6CCCC6)[nH]5)ccc4c3)cc2)[nH]1)C1CCCC1 [compound 172] | > 9.00
CC[C@H](NC(=O)OC)C(=O)N1CCC[C@H]1c1ncc(-c2ccc(-c3ccc4cc(-c5cnc([C@@H]6CCCN6C(=O)[C@H](CC)NC(=O)OC)[nH]5)ccc4c3)cc2)[nH]1 [compound 173] | > 9.00
COC(=O)N[C@H](C(=O)N1CCC[C@H]1c1ncc(-c2ccc3cc(-c4ccc5nc([C@@H]6CCCN6C(=O)[C@@H](NC(=O)OC)C(C)C)[nH]c5c4)ccc3c2)[nH]1)C(C)C [compound 174] | > 9.00
COC(=O)N[C@H](C(=O)N1CCC[C@H]1c1ncc(-c2ccc3cc(-c4ccc5nc([C@@H]6CCCN6C(=O)[C@@H](NC(=O)OC)[C@@H](C)O)[nH]c5c4)ccc3c2)[nH]1)[C@@H](C)O [compound 175] | > 9.00
COC(=O)N[C@H](C(=O)N1CCC[C@H]1c1ncc(-c2ccc3cc(-c4ccc5nc([C@@H]6CCCN6C(=O)[C@@H](NC(=O)OC)[C@@H](C)OC)[nH]c5c4)ccc3c2)[nH]1)[C@@H](C)OC [compound 176] | > 9.00
COC(=O)N[C@H](C(=O)N1CCC[C@H]1c1ncc(-c2ccc3cc(-c4ccc5nc([C@@H]6CCCN6C(=O)[C@@H](c6ccccc6)N(C)C)[nH]c5c4)ccc3c2)[nH]1)C(C)C [compound 177] | > 9.00
COC(=O)N[C@H](C(=O)N1CCC[C@H]1c1nc2ccc(-c3ccc4cc(-c5cnc([C@@H]6CCCN6C(=O)[C@@H](c6ccccc6)N6CCCC6)[nH]5)ccc4c3)cc2[nH]1)C(C)C [compound 178] | > 9.00
COC(=O)N[C@H](C(=O)N1CCC[C@H]1c1nc2ccc(-c3ccc4cc(-c5cnc([C@@H]6CCCN6C(=O)[C@H](NC(=O)OC)c6ccccc6)[nH]5)ccc4c3)cc2[nH]1)C(C)C [compound 179] | > 9.00
COC(=O)N[C@H](C(=O)N1CCC[C@H]1c1ncc(-c2ccc3cc(-c4ccc5nc([C@@H]6CCCN6C(=O)[C@@H](c6ccccc6)N6CCCC6)[nH]c5c4)ccc3c2)[nH]1)C(C)C [compound 180] | > 9.00
COC(=O)N[C@H](C(=O)N1CCC[C@H]1c1ncc(-c2ccc3cc(-c4ccc5nc([C@@H]6CCCN6C(=O)[C@H](NC(=O)OC)c6ccccc6)[nH]c5c4)ccc3c2)[nH]1)C(C)C [compound 181] | > 9.00
COC(=O)N[C@H](C(=O)N1CCC[C@H]1c1nc2ccc(-c3ccc4cc(-c5cnc([C@@H]6CCCN6C(=O)[C@@H](c6ccccc6)N(C)C)[nH]5)ccc4c3)cc2[nH]1)C(C)C [compound 182] | > 9.00
COC(=O)N[C@H](C(=O)N1CCC[C@H]1c1nc2ccc(-c3ccc4cc(-c5cnc([C@@H]6CCCN6C(=O)[C@H](NC(=O)N6CC[C@H](O)C6)c6ccccc6)[nH]5)ccc4c3)cc2[nH]1)C(C)C [compound 183] | > 9.00
COC(=O)N[C@H](C(=O)N1CCC[C@H]1c1ncc(-c2ccc3cc(-c4ccc5nc([C@@H]6CCCN6C(=O)[C@H](NC(=O)N6CC[C@H](O)C6)c6ccccc6)[nH]c5c4)ccc3c2)[nH]1)C(C)C [compound 185] | > 9.00
CNC(=O)N[C@@H](C(=O)N1CCC[C@H]1c1ncc(-c2ccc3cc(-c4ccc5nc([C@@H]6CCCN6C(=O)[C@@H](NC(=O)OC)C(C)C)[nH]c5c4)ccc3c2)[nH]1)c1ccccc1 [compound 186] | > 9.00
COC(=O)N[C@H](C(=O)N1CCC[C@H]1c1ncc(-c2cnc3cc(-c4ccc5nc([C@@H]6CCCN6C(=O)[C@@H](NC(=O)OC)C(C)C)[nH]c5c4)ccc3c2)[nH]1)C(C)C [compound 187] | > 9.00
COC(=O)N[C@H](C(=O)N1CCC[C@H]1c1ncc(-c2cnc3cc(-c4ccc5nc([C@@H]6CCCN6C(=O)[C@H](NC(=O)OC)c6ccccc6)[nH]c5c4)ccc3c2)[nH]1)C(C)C [compound 188] | 8.00 to 9.00
COC(=O)N[C@H](C(=O)N1CCC[C@H]1c1ncc(-c2ccc3cc(-c4ccc5nc([C@@H]6CCCN6C(=O)[C@@H](NC(=O)OC)C6CCOCC6)[nH]c5c4)ccc3c2)[nH]1)C(C)C [compound 189] | > 9.00
COC(=O)N[C@H](C(=O)N1CCC[C@H]1c1nc2ccc(-c3ccc4cc(-c5cnc([C@@H]6CCCN6C(=O)[C@@H](NC(=O)OC)C6CCOCC6)[nH]5)ccc4c3)cc2[nH]1)C(C)C [compound 190] | > 9.00
COC(=O)N[C@H](C(=O)N1CCC[C@H]1c1nc2ccc(-c3ccc4cc(-c5cnc([C@@H]6CCCN6C(=O)[C@@H](NC(=O)OC)C6CCOCC6)[nH]5)cnc4c3)cc2[nH]1)C(C)C [compound 191] | > 9.00
